Laboratory results taken from paper PMC11864979, “First-in-class ultralong-target-residence-time p38α inhibitors as a mitosis-targeted therapy for colorectal cancer” (Nature Cancer, 2025).
Like-named read-outs stand apart in the source and are kept apart here.

Key:
Test in all cases: selectivity profiling in a panel of 340 wild-type kinases (Reaction Biology Europe)
Format in all cases: binding
[1] = biological target: T1, 340 wild-type kinases (Homo sapiens, UniProt O75914)
T1 construct: purchased Reaction Biology Europe

[2] = biological target: T2, 340 wild-type kinases (Homo sapiens, UniProt P29323)
T2 construct: purchased Reaction Biology Europe
T2 sequence (P29323 19-1055): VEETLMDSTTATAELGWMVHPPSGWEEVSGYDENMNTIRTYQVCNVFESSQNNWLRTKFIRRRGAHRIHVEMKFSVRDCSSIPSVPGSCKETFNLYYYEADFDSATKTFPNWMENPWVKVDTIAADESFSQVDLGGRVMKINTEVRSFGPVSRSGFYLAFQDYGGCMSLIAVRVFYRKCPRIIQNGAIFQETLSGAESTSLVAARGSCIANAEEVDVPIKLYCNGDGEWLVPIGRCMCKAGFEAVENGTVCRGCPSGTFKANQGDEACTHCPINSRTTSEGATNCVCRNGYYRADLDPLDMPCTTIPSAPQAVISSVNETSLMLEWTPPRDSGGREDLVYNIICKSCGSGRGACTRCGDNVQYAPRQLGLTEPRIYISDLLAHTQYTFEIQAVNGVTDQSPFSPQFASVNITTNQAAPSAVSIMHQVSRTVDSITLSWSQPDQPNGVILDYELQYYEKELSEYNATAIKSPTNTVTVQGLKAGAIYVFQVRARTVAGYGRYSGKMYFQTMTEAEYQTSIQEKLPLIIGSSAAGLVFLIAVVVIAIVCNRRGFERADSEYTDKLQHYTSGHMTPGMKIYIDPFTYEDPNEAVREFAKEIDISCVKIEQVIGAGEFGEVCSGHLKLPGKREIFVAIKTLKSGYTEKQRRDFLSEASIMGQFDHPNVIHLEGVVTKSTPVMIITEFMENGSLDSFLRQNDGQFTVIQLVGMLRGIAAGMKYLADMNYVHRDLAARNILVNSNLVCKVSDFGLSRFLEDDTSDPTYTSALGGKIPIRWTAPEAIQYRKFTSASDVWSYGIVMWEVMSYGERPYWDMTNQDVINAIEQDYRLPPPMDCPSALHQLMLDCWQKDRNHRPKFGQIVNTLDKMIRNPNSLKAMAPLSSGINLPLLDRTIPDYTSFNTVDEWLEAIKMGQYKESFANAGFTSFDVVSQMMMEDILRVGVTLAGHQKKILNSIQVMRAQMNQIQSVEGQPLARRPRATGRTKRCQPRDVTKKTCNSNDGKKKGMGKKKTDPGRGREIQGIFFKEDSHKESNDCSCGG

[3] = biological target: T3, 340 wild-type kinases (Homo sapiens, UniProt Q99986)
T3 construct: purchased Reaction Biology Europe
T3 sequence (Q99986 1-396): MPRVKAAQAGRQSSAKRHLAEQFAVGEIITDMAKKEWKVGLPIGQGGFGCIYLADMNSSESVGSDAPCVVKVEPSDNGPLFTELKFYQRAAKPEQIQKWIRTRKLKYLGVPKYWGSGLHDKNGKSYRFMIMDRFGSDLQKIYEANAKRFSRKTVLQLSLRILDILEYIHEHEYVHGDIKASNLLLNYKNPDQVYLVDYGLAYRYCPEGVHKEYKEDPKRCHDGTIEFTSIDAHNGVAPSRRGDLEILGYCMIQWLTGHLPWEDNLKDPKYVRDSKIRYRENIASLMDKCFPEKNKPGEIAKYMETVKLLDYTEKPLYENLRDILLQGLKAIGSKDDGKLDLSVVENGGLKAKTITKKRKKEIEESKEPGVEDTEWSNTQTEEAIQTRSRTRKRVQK

[4] = biological target: T4, 340 wild-type kinases (Homo sapiens, UniProt Q9BZL6)
T4 construct: purchased Reaction Biology Europe
T4 sequence (Q9BZL6 1-878): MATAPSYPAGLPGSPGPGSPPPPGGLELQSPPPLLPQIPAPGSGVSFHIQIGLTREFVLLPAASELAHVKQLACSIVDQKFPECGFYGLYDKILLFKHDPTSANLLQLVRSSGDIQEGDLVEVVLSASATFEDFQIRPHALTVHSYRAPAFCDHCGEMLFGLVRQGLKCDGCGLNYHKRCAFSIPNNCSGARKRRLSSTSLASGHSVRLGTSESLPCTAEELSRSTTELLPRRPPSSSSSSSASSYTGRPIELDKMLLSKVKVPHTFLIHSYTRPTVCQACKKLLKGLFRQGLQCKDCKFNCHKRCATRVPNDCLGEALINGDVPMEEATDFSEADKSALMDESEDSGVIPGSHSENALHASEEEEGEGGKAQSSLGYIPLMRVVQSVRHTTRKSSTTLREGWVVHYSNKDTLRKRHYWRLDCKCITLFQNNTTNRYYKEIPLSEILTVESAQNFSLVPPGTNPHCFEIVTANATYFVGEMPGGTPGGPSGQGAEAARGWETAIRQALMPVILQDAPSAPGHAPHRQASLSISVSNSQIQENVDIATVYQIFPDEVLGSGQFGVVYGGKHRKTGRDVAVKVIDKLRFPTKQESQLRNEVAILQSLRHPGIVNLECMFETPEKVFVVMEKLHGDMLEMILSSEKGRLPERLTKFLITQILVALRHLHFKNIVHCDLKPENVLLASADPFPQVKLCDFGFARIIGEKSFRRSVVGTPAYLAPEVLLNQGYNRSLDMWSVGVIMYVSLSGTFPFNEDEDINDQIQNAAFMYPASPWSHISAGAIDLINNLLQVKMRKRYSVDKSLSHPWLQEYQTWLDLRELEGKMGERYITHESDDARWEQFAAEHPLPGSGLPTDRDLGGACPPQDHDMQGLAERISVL

T1 sequence (O75914 whole entry): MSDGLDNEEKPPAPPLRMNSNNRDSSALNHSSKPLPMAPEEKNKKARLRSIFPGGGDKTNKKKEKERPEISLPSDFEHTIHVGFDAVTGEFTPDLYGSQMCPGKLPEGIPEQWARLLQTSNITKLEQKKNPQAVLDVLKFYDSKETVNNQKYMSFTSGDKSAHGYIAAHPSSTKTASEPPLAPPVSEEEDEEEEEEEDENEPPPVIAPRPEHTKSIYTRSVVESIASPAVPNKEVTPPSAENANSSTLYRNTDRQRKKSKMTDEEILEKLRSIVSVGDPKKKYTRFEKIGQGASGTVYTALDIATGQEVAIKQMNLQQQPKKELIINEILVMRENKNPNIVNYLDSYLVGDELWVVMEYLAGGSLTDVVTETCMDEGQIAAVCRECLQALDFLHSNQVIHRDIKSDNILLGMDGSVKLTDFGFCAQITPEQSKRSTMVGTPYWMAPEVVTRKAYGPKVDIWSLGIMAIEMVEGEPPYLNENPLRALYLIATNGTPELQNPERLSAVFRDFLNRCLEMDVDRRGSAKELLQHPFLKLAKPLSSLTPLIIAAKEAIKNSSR

SMILES: CNC(=O)c1ccc2c(c1)C(=O)c1ccc(Nc3ccc(F)c(NC(=O)C4CC4)c3)cc1CC2 [Compound 2015]
- remaining activity at 0.2 µM ([1]; 0.2 µM 2015, read-out: PAK3 residual activity): 97.6%
- remaining activity at 1 µM ([1]; 1 µM 2015, read-out: PAK3 residual activity): 96.3%
- remaining activity at 0.2 µM ([1]; PAK3, 0.2 µM, read-out: residual activity): 97.6%
- remaining activity at 1 µM ([1]; PAK3, 1 µM, read-out: residual activity): 96.3%
- remaining activity at 0.2 µM ([2]; 0.2 µM 2015, read-out: EPHB2 residual activity): 97.4%
- remaining activity at 1 µM ([2]; 1 µM 2015, read-out: EPHB2 residual activity): 98.5%
- remaining activity at 0.2 µM ([2]; EPHB2, 0.2 µM, read-out: residual activity): 97.4%
- remaining activity at 1 µM ([2]; EPHB2, 1 µM, read-out: residual activity): 98.5%
- remaining activity at 0.2 µM ([3]; 0.2 µM 2015, read-out: VRK1 residual activity): 96.8%
- remaining activity at 1 µM ([3]; 1 µM 2015, read-out: VRK1 residual activity): 87.2%
- remaining activity at 0.2 µM ([3]; VRK1, 0.2 µM, read-out: residual activity): 96.8%
- remaining activity at 1 µM ([3]; VRK1, 1 µM, read-out: residual activity): 87.2%
- remaining activity at 0.2 µM ([4]; 0.2 µM 2015, read-out: PRKD2 residual activity): 66.4%
- remaining activity at 1 µM ([4]; 1 µM 2015, read-out: PRKD2 residual activity): 91.3%
- remaining activity at 0.2 µM ([4]; PRKD2, 0.2 µM, read-out: residual activity): 66.4%
- remaining activity at 1 µM ([4]; PRKD2, 1 µM, read-out: residual activity): 91.3%
